Reference: the NIST ThermoML archive (doi:10.1021/je0340755)

Assay: xn = mol fraction of the nth substance listed
Conditions: 101.3 kPa, Liquid; for viscosity: Capillary tube (Ostwald / Ubbelohde) method

CC(O)C(C)O (configuration not stated) [2,3-butanediol] + O
Conditions	mass density, 318.15 K [kg/m3]	mass density, 328.15 K [kg/m3]	mass density, 338.15 K [kg/m3]	speed of sound, 318.15 K [m/s]	speed of sound, 328.15 K [m/s]	speed of sound, 338.15 K [m/s]	viscosity, 328.15 K [mPa·s]	viscosity, 338.15 K [mPa·s]
x2 = 0.0546	–	971.78	963.14	–	1397.7	1379	7.267	4.899
x2 = 0.1435	–	973.84	965.14	–	1413.9	1394.6	6.438	4.365
x2 = 0.2458	–	976.48	967.72	–	1431.2	1410.6	5.44	3.722
x2 = 0.3539	–	979.73	970.91	–	1456.9	1433.2	4.404	3.054
x2 = 0.4502	–	983.14	974.25	–	1482.2	1457.5	3.532	2.49
x2 = 0.4989	–	985.04	976.14	–	1494.1	1468.9	3.117	2.221
x2 = 0.5503	–	987.17	978.26	–	1508.7	1482.2	2.705	1.951
x2 = 0.6581	1004.28	991.86	982.97	1566	1537.6	1510.5	1.94	1.447
x2 = 0.7518	1007.26	995.6	986.9	1595.2	1567.1	1540	1.412	1.089
x2 = 0.8626	1007.49	997.57	989.57	1605.3	1596.6	1573.7	0.954	0.768
x2 = 0.9092	1005.07	996.39	988.99	1598.9	1594.5	1577.3	0.802	0.656
x2 = 0.9148	1004.61	996.11	988.8	1596.7	1592.9	1576	0.784	0.644
x2 = 0.9248	1003.67	995.52	988.39	1596.3	1590.3	1576.1	0.753	0.621
x2 = 0.9305	1003.07	995.13	988.1	1590.4	1585.9	1572.2	0.735	0.608
x2 = 0.935	1002.56	994.78	987.85	1583.1	1570.1	1559.7	0.721	0.598
x2 = 0.9452	1001.27	993.9	987.18	1580.2	1574.2	1564.6	0.689	0.573
x2 = 0.9542	999.96	992.98	986.46	1578.1	1573	1566.2	0.661	0.552
x2 = 0.9703	997.18	990.96	984.86	1571.6	1570.4	1566.1	0.607	0.513
x2 = 0.98	995.19	989.48	983.67	1558.5	1561.6	1561.3	0.574	0.49
x2 = 0.9903	992.79	987.67	982.18	1548.2	1553.7	1556.6	0.539	0.463
x2 = 0.9925	992.23	987.24	981.83	1544.5	1551.3	1555.4	0.531	0.458
x2 = 0.9951	991.55	986.72	981.4	1540	1548.3	1552.7	0.521	0.451
